Experimental data as given in patent publication US11208400B2, “Substituted 6-(1H-pyrazol-1-yl)pyrimidin-4-amine derivatives and uses thereof” (Bayer Aktiengesellschaft, priority 2016, dated 2021).

Target: T1, human Npt2a (Homo sapiens, UniProt Q06495)
T1 construct: expressed in transfected cells
T1 sequence (Q06495 1-639): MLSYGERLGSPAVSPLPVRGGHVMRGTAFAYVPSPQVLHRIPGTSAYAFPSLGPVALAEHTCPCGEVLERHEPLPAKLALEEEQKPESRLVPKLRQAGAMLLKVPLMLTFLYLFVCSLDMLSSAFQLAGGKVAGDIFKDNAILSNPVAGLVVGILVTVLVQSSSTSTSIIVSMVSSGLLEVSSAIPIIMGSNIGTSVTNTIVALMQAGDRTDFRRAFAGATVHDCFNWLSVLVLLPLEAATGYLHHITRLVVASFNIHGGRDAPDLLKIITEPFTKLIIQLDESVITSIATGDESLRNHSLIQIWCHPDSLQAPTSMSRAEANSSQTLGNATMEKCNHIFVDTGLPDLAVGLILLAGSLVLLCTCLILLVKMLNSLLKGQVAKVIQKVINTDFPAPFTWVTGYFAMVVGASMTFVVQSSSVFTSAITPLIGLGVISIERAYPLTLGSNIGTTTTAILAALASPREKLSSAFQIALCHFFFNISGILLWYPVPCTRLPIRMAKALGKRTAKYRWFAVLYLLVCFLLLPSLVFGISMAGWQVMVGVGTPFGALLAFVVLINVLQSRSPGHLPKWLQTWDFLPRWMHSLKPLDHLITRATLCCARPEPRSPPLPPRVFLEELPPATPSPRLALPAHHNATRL
Experiment: Npt2a activity cell based assay, membrane potential dye, CHO T-REx hNpt2a cells
Details: doxycycline-induced, depolarization by sodium phosphate influx, average or median values if tested more than once
Method in brief: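 Doxycycline-induced (0.5 μg/mL, 24 h) CHO T-REx cells were loaded with membrane potential dye in sodium-free NHE buffer (pH 7.4) and exposed to compound (50 μM–1 nM, 5 min, room temperature).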

Point of comparison: Cc1cc(C(F)F)n(-c2cc(Nc3nn(C)c(-c4ccc(C#N)cc4)c3C)ncn2)n1 [Example 236, 4-[3-({6-[5-(difluoromethyl)-3-methyl-1H-pyrazol-1-yl]pyrimidin-4-yl}amino)-1,4-dimethyl-1H-pyrazol-5-yl]benzonitrile], IC50 3 nM. Against it:
- CCc1c(-c2ccc(F)cc2)nn(C)c1Nc1cc(-n2nc(C)c3cnccc32)ncn1 [Example 230, N-[4-ethyl-3-(4-fluorophenyl)-1-methyl-1H-pyrazol-5-yl]-6-(3-methyl-1H-pyrazolo[4,3-c]pyridin-1-yl)pyrimidin-4-amine] — 280-fold higher, 830 nM
- Cc1c(-c2ccc(C#N)cc2)nn(CC2CC2)c1Nc1cc(-n2nc(C)c3ccncc32)ncn1 [Example 231, 4-[1-(cyclopropylmethyl)-4-methyl-5-{[6-(3-methyl-1H-pyrazolo[3,4-c]pyridin-1-yl)pyrimidin-4-yl]amino}-1H-pyrazol-3-yl]benzonitrile] — 1.5-fold lower, 2 nM
- Cc1c(-c2ccc(C#N)cc2)nn(CC2CC2)c1Nc1cc(-n2nc(C)c3ncccc32)ncn1 [Example 232, 4-[1-(cyclopropylmethyl)-4-methyl-5-{[6-(3-methyl-1H-pyrazolo[4,3-b]pyridin-1-yl)pyrimidin-4-yl]amino}-1H-pyrazol-3-yl]benzonitrile] — 2-fold higher, 6 nM
- Cc1c(-c2ccc(C#N)cc2)nn(CC2CC2)c1Nc1cc(-n2nc(C)c3cnccc32)ncn1 [Example 233, 4-[1-(cyclopropylmethyl)-4-methyl-5-{[6-(3-methyl-1H-pyrazolo[4,3-c]pyridin-1-yl)pyrimidin-4-yl]amino}-1H-pyrazol-3-yl]benzonitrile] — 9.7-fold higher, 29 nM
- Cc1cc(C(F)F)n(-c2cc(Nc3c(C)c(-c4ccc(C#N)cc4)nn3CC(F)F)ncn2)n1 [Example 234, 4-[1-(2,2-difluoroethyl)-5-({6-[5-(difluoromethyl)-3-methyl-1H-pyrazol-1-yl]pyrimidin-4-yl}amino)-4-methyl-1H-pyrazol-3-yl]benzonitrile] — 9.3-fold higher, 28 nM
- Cc1nn(-c2cc(Nc3nn(C)c(-c4ccc(C#N)cc4)c3C)ncn2)c(C(F)F)c1Cl [Example 235, 4-[3-({6-[4-chloro-5-(difluoromethyl)-3-methyl-1H-pyrazol-1-yl]pyrimidin-4-yl}amino)-1,4-dimethyl-1H-pyrazol-5-yl]benzonitrile] — the same, 3 nM
- Cc1nn(-c2cc(Nc3c(C)c(-c4ccc(C#N)cc4)nn3CCC3CC3)ncn2)c(C(F)F)c1Cl [Example 237, 4-[5-({6-[4-chloro-5-(difluoromethyl)-3-methyl-1H-pyrazol-1-yl]pyrimidin-4-yl}amino)-1-(2-cyclopropylethyl)-4-methyl-1H-pyrazol-3-yl]benzonitrile] — 5-fold higher, 15 nM
- CCc1c(Nc2cc(-n3nc(C)c(CC(C)(C)O)c3C)ncn2)nn(C)c1-c1ccc(F)cc1 [Example 238, 1-[1-(6-{[4-ethyl-5-(4-fluorophenyl)-1-methyl-1H-pyrazol-3-yl]amino}pyrimidin-4-yl)-3,5-dimethyl-1H-pyrazol-4-yl]-2-methylpropan-2-ol] — 28-fold higher, 83 nM
- Cc1nn(-c2cc(Nc3nn(CCC4CC4)c(-c4ccc(C#N)cc4)c3C)ncn2)c(C(F)F)c1Cl [Example 239, 4-[3-({6-[4-chloro-5-(difluoromethyl)-3-methyl-1H-pyrazol-1-yl]pyrimidin-4-yl}amino)-1-(2-cyclopropylethyl)-4-methyl-1H-pyrazol-5-yl]benzonitrile] — 97-fold higher, 290 nM
- Cc1cc(C(F)F)n(-c2cc(Nc3c(C)c(-c4ccc(C#N)cc4)nn3C)ncn2)n1 [Example 240, 4-[5-({6-[5-(difluoromethyl)-3-methyl-1H-pyrazol-1-yl]pyrimidin-4-yl}amino)-1,4-dimethyl-1H-pyrazol-3-yl]benzonitrile] — 6-fold higher, 18 nM
- Cc1nn(-c2cc(Nc3c(C)c(-c4ccc(C#N)cc4)nn3C)ncn2)c(C(F)F)c1Cl [Example 241, 4-[5-({6-[4-chloro-5-(difluoromethyl)-3-methyl-1H-pyrazol-1-yl]pyrimidin-4-yl}amino)-1,4-dimethyl-1H-pyrazol-3-yl]benzonitrile] — 2.3-fold higher, 7 nM
- CCc1c(Nc2cc(-n3ccc(C)n3)ncn2)nn(C)c1-c1ccc(F)cc1 [Example 242, N-[4-ethyl-5-(4-fluorophenyl)-1-methyl-1H-pyrazol-3-yl]-6-(3-methyl-1H-pyrazol-1-yl)pyrimidin-4-amine] — 7-fold higher, 21 nM
- Cc1ccn(-c2cc(Nc3c(C)c(-c4ccc(C#N)cc4)nn3CC3CC3)ncn2)n1 [Example 243, 4-[1-(cyclopropylmethyl)-4-methyl-5-{[6-(3-methyl-1H-pyrazol-1-yl)pyrimidin-4-yl]amino}-1H-pyrazol-3-yl]benzonitrile] — 9.3-fold higher, 28 nM
- Cc1nn(-c2cc(Nc3c(C)c(-c4ccc(F)cc4)nn3CC3CC3)ncn2)c(C)c1C1(O)CC1 [Example 244, 1-[1-(6-{[1-(cyclopropylmethyl)-3-(4-fluorophenyl)-4-methyl-1H-pyrazol-5-yl]amino}pyrimidin-4-yl)-3,5-dimethyl-1H-pyrazol-4-yl]cyclopropanol] — 2.7-fold higher, 8 nM
- CCc1c(Nc2cc(-n3cccn3)ncn2)nn(C)c1-c1ccc(F)cc1 [Example 245, N-[4-ethyl-5-(4-fluorophenyl)-1-methyl-1H-pyrazol-3-yl]-6-(1H-pyrazol-1-yl)pyrimidin-4-amine] — 220-fold higher, 660 nM
- Cc1c(-c2ccc(C#N)cc2)nn(CC2CC2)c1Nc1cc(-n2cccn2)ncn1 [Example 246, 4-[1-(cyclopropylmethyl)-4-methyl-5-{[6-(1H-pyrazol-1-yl)pyrimidin-4-yl]amino}-1H-pyrazol-3-yl]benzonitrile] — 110-fold higher, 340 nM
- Cc1c(-c2ccc(C#N)cc2)nn(CC2CC2)c1Nc1cc(-n2cc(C(F)(F)F)cn2)ncn1 [Example 247, 4-[1-(cyclopropylmethyl)-4-methyl-5-({6-[4-(trifluoromethyl)-1H-pyrazol-1-yl]pyrimidin-4-yl}amino)-1H-pyrazol-3-yl]benzonitrile] — 9.7-fold higher, 29 nM
- Cc1cc(C)n(-c2cc(Nc3c(C)c(-c4ccc(C#N)cc4)nn3CC(F)F)ncn2)n1 [Example 248, 4-[1-(2,2-difluoroethyl)-5-{[6-(3,5-dimethyl-1H-pyrazol-1-yl)pyrimidin-4-yl]amino}-4-methyl-1H-pyrazol-3-yl]benzonitrile] — 61-fold higher, 182 nM
- CCc1c(Nc2cc(-n3cc(C(F)(F)F)cn3)ncn2)nn(C)c1-c1ccc(F)cc1 [Example 250, N-[4-ethyl-5-(4-fluorophenyl)-1-methyl-1H-pyrazol-3-yl]-6-[4-(trifluoromethyl)-1H-pyrazol-1-yl]pyrimidin-4-amine] — 7-fold higher, 21 nM
- Cc1cc(C(F)F)n(-c2cc(Nc3nn(CC(F)F)c(-c4ccc(C#N)cc4)c3C)ncn2)n1 [Example 251, 4-[1-(2,2-difluoroethyl)-3-({6-[5-(difluoromethyl)-3-methyl-1H-pyrazol-1-yl]pyrimidin-4-yl}amino)-4-methyl-1H-pyrazol-5-yl]benzonitrile] — 4.7-fold higher, 14 nM
- Cc1cc(C)n(-c2cc(Nc3nn(CC(F)F)c(-c4ccc(C#N)cc4)c3C)ncn2)n1 [Example 252, 4-[1-(2,2-difluoroethyl)-3-{[6-(3,5-dimethyl-1H-pyrazol-1-yl)pyrimidin-4-yl]amino}-4-methyl-1H-pyrazol-5-yl]benzonitrile] — 16-fold higher, 48 nM
- COc1c(Nc2cc(-n3nc(C)cc3C)ncn2)nn(C)c1-c1ccc(F)cc1 [Example 253, 6-(3,5-dimethyl-1H-pyrazol-1-yl)-N-[5-(4-fluorophenyl)-4-methoxy-1-methyl-1H-pyrazol-3-yl]pyrimidin-4-amine] — 22-fold higher, 67 nM
- COc1c(-c2ccc(F)cc2)nn(C)c1Nc1cc(-n2nc(C)cc2C)ncn1 [Example 254, 6-(3,5-dimethyl-1H-pyrazol-1-yl)-N-[3-(4-fluorophenyl)-4-methoxy-1-methyl-1H-pyrazol-5-yl]pyrimidin-4-amine] — 50-fold higher, 150 nM
- CCc1c(Nc2cc(-n3nc(C)c(CC4(O)CC4)c3C)ncn2)nn(C)c1-c1ccc(F)cc1 [Example 256, 1-{[1-(6-{[4-ethyl-5-(4-fluorophenyl)-1-methyl-1H-pyrazol-3-yl]amino}pyrimidin-4-yl)-3,5-dimethyl-1H-pyrazol-4-yl]methyl}cyclopropanol] — 12-fold higher, 35 nM
- CCOC(=O)Cc1c(C)nn(-c2cc(Nc3c(C)nn(-c4ccc(C#N)cc4)c3C)ncn2)c1C [Example 257, ethyl [1-(6-{[1-(4-cyanophenyl)-3,5-dimethyl-1H-pyrazol-4-yl]amino}pyrimidin-4-yl)-3,5-dimethyl-1H-pyrazol-4-yl]acetate] — 25-fold higher, 74 nM
- CCOC(=O)c1cc(C)nn1-c1cc(Nc2c(C)c(-c3ccc(C#N)cc3)nn2CC2CC2)ncn1 [Example 258, ethyl 1-(6-{[3-(4-cyanophenyl)-1-(cyclopropylmethyl)-4-methyl-1H-pyrazol-5-yl]amino}pyrimidin-4-yl)-3-methyl-1H-pyrazole-5-carboxylate] — 930-fold higher, 2800 nM
- CCOC(=O)c1c(Cl)c(C)nn1-c1cc(Nc2nn(C)c(-c3ccc(F)cc3)c2C)ncn1 [Example 259, ethyl 4-chloro-1-(6-{[5-(4-fluorophenyl)-1,4-dimethyl-1H-pyrazol-3-yl]amino}pyrimidin-4-yl)-3-methyl-1H-pyrazole-5-carboxylate] — 17-fold higher, 50 nM
